The test deals with HCV genotype 1b. The experiment in a line: HCV 1b replicon luciferase assay. The class given is cell-based. The essentials:
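Luminescence (Steady-Glo) served as the replication read-out after 48 h compound exposure of 1b replicon-luciferase Huh7 cells seeded at 10k/well. Dosing used 5-fold serial dilutions, 10 concentrations, top 25 μM final, 0.1% DMSO, duplicates.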

The mark [1] stands for this setting: Hepatitis C virus, Huh-7, 48 h, Table 1, Huh7 HCV 1b replicon, luciferase reporter, 48 hours, read-out: 1b EC50.
The mark [2] stands for this setting: Hepatitis C virus, 48 h, read-out: EC50 in the 48 hour 1b replicon assay, 48 hour.
Setting [3] is: Table 1, Huh7 HCV 1b replicon, luciferase reporter, 48 hours, read-out: 1b EC50.

Structures are written as SMILES. Where two headings read alike, the source gives them in different places.

Take `C[C@@H]1CCC[C@H]1Oc1ccc2c(C(=O)NC3CCNCC3)nn(C)c2n1` [compound 945]: the EC50 – broadly, the concentration giving half of the maximal effect – under setting [1] is 2600 nM. Consider `Cn1nc(C(=O)NC2CCNCC2)c2ccc(N3CCCCCC3)nc21` [EBP697], for which the EC50 under setting [2] was below 3000 nM. Consider `CCC(CC)Oc1ccc2c(NC(=O)c3ccc(C)s3)nn(C)c2n1` [compound 956], for which the EC50 under setting [3] is 21000 nM. Consider `CC1CC(NC(=O)c2nn(C)c3nc(N4CCCCCCC4)ccc23)CCN1Cc1ccc(OC(F)F)cc1` (stereo not drawn) [compound 1152], for which the EC50 under setting [1] amounted to 6100 nM. Still for that read-out and setting: as for `CC1CCC(Oc2ccc3c(C(=O)NC4CCNCC4)nn(C)c3n2)CC1` (stereo not drawn) [compound 879], the figure is 3900 nM; as for `CCC(CC)Oc1ccc2c(NC(=O)C3CCCNC3)nn(C)c2n1` (stereo not drawn) [compound 938], 8200 nM; as for `Cn1nc(C(=O)NC2CCNCC2)c2ccc(Oc3ccccc3)nc21` [compound 955], 3400 nM. Same read-out and setting: as for `CN(CC1CCCCC1)c1ccc2c(C(=O)NC3CCNCC3)nn(C)c2n1` [compound 867], the figure is 934 nM; as for `Cn1nc(-c2cnc(C3CCCN(Cc4ccc(OC(F)F)cc4)C3)s2)c2ccc(N3CCCCCCC3)nc21` (stereo not drawn) [compound 1257], 2400 nM. Still for that read-out and setting: the same measure for `O=C(CC1CCNCC1)Nc1nn(Cc2ccc(Cl)cc2)c2nc(N3CCCC3)ccc12` [compound 813]: 6800 nM. For `Cn1nc(-c2nnc(C3CCCNC3)o2)c2ccc(N3CCCCCCC3)nc21` (stereo not drawn) [compound 1271], under setting [1], the EC50 is 3200 nM. For `CCCn1nc(C(=O)NC2CCN(CCN3CCCCC3)CC2)c2ccc(N3CCCCCC3)nc21` [compound 1486], the EC50 under setting [1] stood at 760 nM. As for `Cn1nc(-c2c[nH]c(CC3CCNCC3)n2)c2ccc(N3CCCCCC3)nc21` [compound 1054], the EC50 under setting [1] was 8600 nM. On the same count and under the same terms, the same measure for `C=CCCCCCn1nc(C(=O)NC2CCN(CC=C)CC2)c2ccc(N3CCCCCC3)nc21` [compound 1106]: 8100 nM; for `CN(c1ccc2c(C(=O)NC3CCN(CC4CCCCC4)CC3)nn(C)c2n1)C1CCCCCC1` [compound 1077]: 1600 nM. As to `Cn1nc(C(=O)NC2CCCNC2)c2ccc(N3CCCCCC3)nc21` (stereo not drawn) [compound 698], under setting [1], the EC50 stood at 3800 nM. Same read-out and setting: the same measure for `Cn1nc(C(=O)NC2CCNCC2)c2ccc(NCc3ccccc3)nc21` [compound 1042]: 3800 nM; for `C=CCCCn1nc(C(=O)NC2CCN(CC=C)CC2)c2ccc(N3CCCCCC3)nc21` [compound 1104]: 2200 nM. The same measure, in the same setting: as for `Cn1nc(CN2CCNCC2)c2ccc(N3CCCCCC3)nc21` [compound 812], the figure is 4600 nM. The same measure, in the same setting: the same measure for `Clc1ccc(Cn2nc(CN3CCCC3)c3ccc(N4CCCCCC4)nc32)cc1` [compound 763]: 8700 nM. For `Cn1nc(-c2cnc(C(=O)NC3CCCCC3)s2)c2ccc(N3CCCCCCC3)nc21` [compound 1254], the EC50 under setting [1] stood at 1400 nM.

`Cn1nc(CCCN2CCCCC2)c2ccc(N3CCCCCCC3)nc21` [compound 1172]: the EC50 under setting [1] was 1500 nM. Still for that read-out and setting: as for `CC(C)c1ccc(CN(c2ccc3c(C(=O)NC4CCN(CCN5CCCCC5)CC4)nn(C)c3n2)C2CCCCCC2)cc1` [compound 1303], the figure is 660 nM.

In the case of `CC(C)CN(C)c1ccc2c(C(=O)NC3CCN(CC4CCCCC4)CC3)nn(C)c2n1` [compound 1075], under setting [1], the EC50 came to 760 nM. For `CC(c1ccncc1)N1CCC(NC(=O)c2nn(C)c3nc(N4CCCCCCC4)ccc23)CC1` (stereo not drawn) [compound 1304], the EC50 under setting [1] came out at 1400 nM.

For `Cn1nc(C(=O)NC2CCNCC2)c2ccc(N3CCCCCCC3)nc21` [compound 886], under setting [1], the 50% effective concentration (EC50) worked out at 798 nM. For `Clc1ccc(Cn2nc(CNC3CCNCC3)c3ccc(N4CCCCCC4)nc32)cc1` [compound 762], under setting [1], the EC50 came out at 2900 nM. The same measure, in the same setting: as for `Cn1nc(-c2nnc(C3CCN(CCN4CCCCC4)CC3)o2)c2ccc(N3CCCCCCC3)nc21` [compound 1373], the figure is 630 nM. For the compound `Cn1nc(C(=O)NC2CCN(CC3CCCCC3)CC2)c2ccc(NC3CCCCCCC3)nc21` [compound 1477], under setting [3], the EC50 came to 530 nM. As to `CCC(CC)Oc1ccc2c(NC(=O)[C@H]3CC[C@H](N)CC3)nn(C)c2n1` [compound 949], the EC50 under setting [1] was 5700 nM. The same measure, in the same setting: the same measure for `CC(C)CNc1ccc2c(C(=O)NC3CCCNC3)nn(C)c2n1` (stereo not drawn) [compound 684]: 10000 nM; for `Cn1nc(C(=O)NCc2ccccc2)c2ccc(N3CCCCCC3)nc21` [compound 830]: 7300 nM; for `Cn1nc(C(=O)NC2CCN(Cc3ccccc3Cl)CC2)c2ccc(N3CCCCCC3)nc21` [compound 1037]: 3400 nM. Same read-out and setting: as for `Cn1nc(C(=O)NC2CCNCC2)c2ccc(OCc3ccccc3)nc21` [compound 1051], the figure is 2900 nM; as for `Cn1nc(C(=O)NC2CCN(CCCC3CCCCC3)CC2)c2ccc(N3CCCCCC3)nc21` [compound 1031], 690 nM.

On to `Cn1nc(C(=O)NC2CCN(C(=O)C3CCCCC3)CC2)c2ccc(N3CCCCCC3)nc21` [compound 1030], for which, under setting [1], the EC50 amounted to 4800 nM.

Consider `Cn1nc(-c2nnc(C3CCNC3)o2)c2ccc(N3CCCCCCC3)nc21` (stereo not drawn) [compound 1363], for which the EC50 under setting [1] is 2700 nM. On to `Cn1nc(-c2nnc(C3CCCCN3CCN3CCCCC3)o2)c2ccc(N3CCCCCCC3)nc21` (stereo not drawn) [compound 1326], for which the EC50 under setting [1] stood at 4800 nM.

With `O=C(NC1CCCNC1)c1nn(-c2ccccc2)c2nc(N3CCCCCC3)ccc12` (stereo not drawn) [compound 1349], under setting [1], the EC50 was found to be 5000 nM. The same measure, in the same setting: the same measure for `Cn1nc(NC(=O)c2cccnc2Cl)c2ccc(N3CCCCCC3)nc21` [compound 832]: 3300 nM; for `Cn1nc(C(=O)NC2CCN(CC3CCCCC3)CC2)c2ccc(NC3CCCCCCC3)nc21` [compound 1076]: 600 nM; for `CC(C)CN1CCC(NC(=O)c2nn(C)c3nc(N4CCCCCCC4)ccc23)CC1` [compound 1236]: 6300 nM. Still for that read-out and setting: the same measure for `Cn1nc(-c2cnc(C(=O)NC3CCCNC3)s2)c2ccc(N3CCCCCC3)nc21` (stereo not drawn) [compound 1128]: 490 nM; for `Cn1nc(-c2cnc(C(=O)NCC3CCCNC3)s2)c2ccc(N3CCCCCC3)nc21` (stereo not drawn) [compound 1130]: 990 nM; for `CC1CCC(Oc2ccc3c(C(=O)NC4CCNCC4)nn(C)c3n2)C1` (stereo not drawn) [compound 946]: 3700 nM. Same read-out and setting: the same measure for `CCCCCCNc1ccc2c(C(=O)NC3CCCNC3)nn(-c3cccc(Cl)c3C)c2n1` (stereo not drawn) [compound 1378]: 2600 nM; for `CCC(CC)Oc1ccc2c(NC(=O)C3CC(C)(C)NC(C)(C)C3)nn(C)c2n1` [compound 950]: 7900 nM; for `CCC(CC)Oc1ccc2c(C(=O)NC3CCNCC3)nn(Cc3ccc(Cl)cc3)c2n1` [compound 795]: 3200 nM. In the case of `Cn1nc(NC(=O)C2CCCNC2)c2ccc(N3CCCCCC3)nc21` (stereo not drawn) [compound 1036], the EC50 under setting [1] came to 8700 nM. Consider `CCC(CC)n1nc(C(=O)NC2CCNCC2)c2ccc(N3CCCCCC3)nc21` [compound 859], for which, under setting [1], the concentration for a half-maximal effect (EC50) worked out at 2800 nM.

Consider `Cn1nc(C(=O)NC2CCN(C3CCCCC3)CC2)c2ccc(N3CCCCCC3)nc21` [compound 1594], for which the EC50 under setting [1] was 1800 nM. The same measure, in the same setting: the same measure for `O=C(NC1CC2CCCC(C1)N2)c1nn(Cc2ccc(Cl)cc2)c2nc(N3CCCCCC3)ccc12` (stereo not drawn) [compound 751]: 2000 nM; for `CC1CC(NC(=O)c2nn(C)c3nc(N4CCCCCCC4)ccc23)CCN1CC1CCCCC1` (stereo not drawn) [compound 1151]: 1400 nM. As to `Cc1ccc(C(=O)Nc2nn(C)c3nc(N4CCCCCC4)ccc23)s1` [EBP841], the EC50 under setting [2] is below 3000 nM.

For the origin of these results see patent publication US20120232062A1, “AZAINDAZOLES TO TREAT FLAVIVIRIDAE VIRUS INFECTION” (EIGER BIOPHARMACEUTICALS, INC., priority 2009, published 2012).
